We go through 15 compounds from ChEMBL document CHEMBL6103643, “Total Synthesis of (-)- and (+)-Talaroenamine B and Diphenylene Derivatives” (J Nat Prod, 2025).

The subject of one series is ASPC1. The experiment in a line: Cytotoxicity against human ASPC1 cells assessed as inhibition of cell growth by SRB assay. It is filed as functional, cell-based.
Series [1] can be described thus: Cytotoxicity against human Cisplatin/etoposide-resistant NCI-H446/EP cells assessed as inhibition of cell growth by SRB assay. It is filed as functional, cell-based.
Another series has as its system NCI-H446. The series can be described thus: Cytotoxicity against human NCI-H446 cells assessed as inhibition of cell growth by SRB assay. It is filed as functional, cell-based.
The target of a further series is Acetylcholinesterase (Homo sapiens, UniProt P22303). The series can be described thus: Inhibition of AChE (unknown origin) by Ellman's method.
Acetylcholinesterase, sequence (P22303 whole entry): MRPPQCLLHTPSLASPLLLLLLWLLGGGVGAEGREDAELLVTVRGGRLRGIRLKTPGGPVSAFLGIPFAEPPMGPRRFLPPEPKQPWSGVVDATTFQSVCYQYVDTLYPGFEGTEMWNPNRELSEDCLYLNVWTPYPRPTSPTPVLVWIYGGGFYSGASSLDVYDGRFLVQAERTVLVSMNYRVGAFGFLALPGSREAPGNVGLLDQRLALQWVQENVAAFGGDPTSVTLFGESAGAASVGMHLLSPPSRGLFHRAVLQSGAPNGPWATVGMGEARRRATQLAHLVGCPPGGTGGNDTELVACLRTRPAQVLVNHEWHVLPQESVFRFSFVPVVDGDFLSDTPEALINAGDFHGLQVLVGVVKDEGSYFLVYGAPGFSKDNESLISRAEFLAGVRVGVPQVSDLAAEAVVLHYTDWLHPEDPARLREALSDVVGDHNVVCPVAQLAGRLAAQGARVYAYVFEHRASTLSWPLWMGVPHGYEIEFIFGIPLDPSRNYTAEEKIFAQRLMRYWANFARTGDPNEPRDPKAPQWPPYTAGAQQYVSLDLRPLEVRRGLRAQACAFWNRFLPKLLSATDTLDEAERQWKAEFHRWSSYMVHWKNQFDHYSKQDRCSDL
The next series relates to K562. The series can be described thus: Cytotoxicity against human K562 cells assessed as inhibition of cell growth by MTT assay. The series is classed as functional, cell-based.
Series [2] in a line: Cytotoxicity against human L02 cells assessed as inhibition of cell growth by SRB assay. The series is classed as toxicity, cell-based.
A short description of series [3]: Selectivity index, ratio of IC50 for cytotoxicity against human L02 cells to IC50 for cytotoxicity against human K562 cells. The series is classed as toxicity, cell-based. As to conditions: L02 cells and K562 cells, read-out: Ratio IC50.

Counter-ions that a name gives are not always drawn.

In the case of `COc1cccc2c1C(=O)c1c(O)c3c(c(O)c1C2=O)C[C@@](O)(C(=O)CO)C[C@@H]3O[C@H]1C[C@H](N)[C@H](O)[C@H](C)O1` [DOXORUBICIN HYDROCHLORIDE], the figures for the IC50 (in the series with ASPC1; in series [1]; in the series with NCI-H446) were 15.1 µM, 0.2 µM and 0.3 µM, respectively.
Consider `CC1=CC(=O)[C@@](C)(O)C(=O)/C1=C\Nc1ccc(Oc2ccc(C#N)cc2)cc1`, for which the IC50 against Acetylcholinesterase is 4.7 µM; in the series on K562, greater than 30 µM; in series [2], greater than 30 µM; with ASPC1 it was greater than 30 µM; in series [1], greater than 30 µM; with NCI-H446 it was greater than 30 µM.
As for `CC1=CC(=O)[C@@](C)(O)C(=O)/C1=C\Nc1ccc(Oc2cccc(F)c2)cc1`, the IC50 against Acetylcholinesterase was greater than 100 µM; in the series with K562, greater than 30 µM; in series [2], greater than 30 µM; in the series on ASPC1, greater than 30 µM; in series [1], greater than 30 µM; in the series with NCI-H446, greater than 30 µM.
`CC1=CC(=O)[C@](C)(O)C(=O)/C1=C\Nc1ccc(Oc2ccc(Cl)cc2)cc1`: the IC50 against Acetylcholinesterase was greater than 100 µM; in the series with K562, 9.5 µM; in series [2], 17 µM; in the series with ASPC1, greater than 30 µM; in series [1], greater than 30 µM; with NCI-H446, greater than 30 µM. In series [3], the selectivity ratio was 1.7.
On to `CC1=CC(=O)[C@@](C)(O)C(=O)/C1=C\Nc1ccc(Cc2ccccc2)cc1`, for which the IC50 against Acetylcholinesterase is greater than 100 µM; in the series with K562, greater than 30 µM; in series [2] it was greater than 30 µM; with ASPC1, greater than 30 µM; in series [1] it was greater than 30 µM; in the series with NCI-H446 it was greater than 30 µM.
With `CC1=CC(=O)[C@](C)(O)C(=O)/C1=C\Nc1ccc(Cc2ccccc2)cc1`, the IC50 was 4.5 µM against Acetylcholinesterase; 5.6 µM in the series on K562; 18.6 µM in series [2]; greater than 30 µM in the series on ASPC1; greater than 30 µM in series [1]; greater than 30 µM with NCI-H446. The selectivity ratio in series [3] came out at 3.3.
Regarding `CC1=CC(=O)[C@@](C)(O)C(=O)/C1=C\Nc1ccc(Oc2ccc(Cl)cc2)cc1`, the concentration for half-maximal inhibition (IC50) was greater than 100 µM against Acetylcholinesterase; greater than 30 µM with K562; greater than 30 µM in series [2]; greater than 30 µM with ASPC1; greater than 30 µM in series [1]; greater than 30 µM with NCI-H446.
`CC1=CC(=O)[C@@](C)(O)C(=O)/C1=C\Nc1ccc(Oc2ccc(C)cc2)cc1`: the IC50 at Acetylcholinesterase was greater than 100 µM; with K562, greater than 30 µM; in series [2], greater than 30 µM; with ASPC1 it was greater than 30 µM; in series [1], greater than 30 µM; with NCI-H446, greater than 30 µM.
`CC1=CC(=O)[C@@](C)(O)C(=O)/C1=C\Nc1ccccc1`: the IC50 is greater than 100 µM at Acetylcholinesterase; greater than 30 µM with K562; greater than 30 µM in series [2]; greater than 30 µM in the series with ASPC1; greater than 30 µM in series [1]; greater than 30 µM with NCI-H446.
On to `CC1=CC(=O)[C@](C)(O)C(=O)/C1=C\Nc1ccc(Oc2cccc(F)c2)cc1`, for which the IC50 was greater than 100 µM on Acetylcholinesterase; 15.5 µM in the series on K562; greater than 30 µM in series [2]; greater than 30 µM with ASPC1; greater than 30 µM in series [1]; greater than 30 µM in the series on NCI-H446. The selectivity ratio in series [3] was greater than 1.9.
On to `CC1=CC(=O)[C@](C)(O)C(=O)/C1=C\Nc1ccc(Oc2ccc(C#N)cc2)cc1`, for which the IC50 at Acetylcholinesterase is 24.4 µM; in the series with K562 it was greater than 30 µM; in series [2] it was greater than 30 µM; in the series with ASPC1, greater than 30 µM; in series [1] it was greater than 30 µM; in the series with NCI-H446, greater than 30 µM.
For `CC1=CC(=O)[C@](C)(O)C(=O)/C1=C\Nc1ccc(Oc2ccc(C)cc2)cc1`, the IC50 was greater than 100 µM on Acetylcholinesterase; greater than 30 µM in the series on K562; 19.8 µM in series [2]; greater than 30 µM in the series on ASPC1; greater than 30 µM in series [1]; greater than 30 µM in the series on NCI-H446.
Take `CC1=CC(=O)[C@](C)(O)C(=O)/C1=C\Nc1ccc(Oc2ccc([N+](=O)[O-])cc2)cc1`: the IC50 on Acetylcholinesterase is 68.1 µM; in the series with K562, greater than 30 µM; in series [2], greater than 30 µM; with ASPC1 it was greater than 30 µM; in series [1], greater than 30 µM; in the series with NCI-H446, greater than 30 µM.
For the compound `CC1=CC(=O)[C@](C)(O)C(=O)/C1=C\Nc1ccccc1`, the concentration for half-maximal inhibition (IC50) on Acetylcholinesterase is greater than 100 µM; with K562, greater than 30 µM; in series [2], greater than 30 µM; in the series with ASPC1, greater than 30 µM; in series [1], greater than 30 µM; in the series with NCI-H446, greater than 30 µM.
Regarding `CC1=CC(=O)[C@@](C)(O)C(=O)/C1=C\Nc1ccc(Oc2ccc([N+](=O)[O-])cc2)cc1`, the IC50 on Acetylcholinesterase was greater than 100 µM; in the series with K562, greater than 30 µM; in series [2] it was greater than 30 µM; in the series with ASPC1 it was greater than 30 µM; in series [1], greater than 30 µM; in the series on NCI-H446, greater than 30 µM.
